{
  "source": "patent US12558353B2",
  "about": "(CELLTAXIS, LLC, priority 2018, dated 2026)",
  "key": {"[1]": {"test_system": "adult patients with cystic fibrosis", "test": "EMPIRE-CF: absolute change from baseline in FEV1pp (spirometry)", "format": "in vivo, human", "details": "48 weeks of therapy", "procedure": "The primary endpoints were absolute change from baseline in FEV1pp and safety outcomes. Secondary endpoints included rate of pulmonary exacerbations and time to first pulmonary exacerbation, and the effects on biomarkers of lung and systemic inflammation. Analyses are described in section entitled “Analysis.”\nSpirometry data were recorded at screening and baseline; all other spirometric measurements at subsequent visits are ideally recorded within ±1 h of the baseline visit measurement. All tests met American Thoracic Society/European Respiratory Society criteria for quality (acceptability, reproducibility, and end of test criteria) [Miller et al., 2005]. To ensure consistency of measurement, spirometry measurements were ideally performed by the same researcher and the patient coached to use maximum effort at every attempt. Patients were able to take all of their concomitant medications according to their regular schedule; however, they were to refrain from using short-acting bronchodilators within 4 h of the scheduled spirometry time, and long-acting bronchodilators within 12-24 h of the scheduled spirometry time.\nThe primary analysis was based upon an analysis of variance (ANOVA) in which the average of the Week 48 change from baseline in FEV1pp for the two acebilustat doses was compared to that in the placebo group. […]"}, "[2]": {"test_system": "adult patients with cystic fibrosis", "test": "EMPIRE-CF: safety and tolerability", "format": "in vivo, human", "details": "48 weeks", "excerpt": "Treatment-emergent adverse events (TEAEs), including serious adverse events, were collected at each visit, and summarized by MEDRA system organ class and preferred term, severity, and relatedness to the study drug. An independent data monitoring committee monitored the safety and study conduct at approximately 8-week intervals."}},
  "note": "Entries after “also recorded” stand apart in the source; their conditions may differ.",
  "data": [
    {"smiles": "O=C(O)c1ccc(CN2C[C@@H]3C[C@H]2CN3Cc2ccc(Oc3ccc(-c4ncco4)cc3)cc2)cc1", "note": "[acebilustat, 4-{[(1S,4S)-5-({4-[4-oxazol-2-yl-phenoxy]phenyl}methyl)-2,5-diazabicyclo[2.2.1]heptan-2-yl]methyl}benzoic acid]", "values": [
      {"measurement": "absolute change in FEV1pp from baseline at Week 48 versus placebo (primary endpoint)", "setting": "[1]", "value": "not different from placebo; also recorded: did not separate from placebo; also recorded: No difference between acebilustat and placebo"},
      {"measurement": "severity of the majority of adverse events", "setting": "[2]", "value": "mild or moderate"},
      {"measurement": "tolerability and risk of infection", "setting": "[2]", "value": "safe and well tolerated"},
      {"measurement": "tolerability and risk of infection", "setting": "[2]; listed as Acebilustat", "value": "well tolerated with no increased risk of infection"}
    ]}
  ]
}
